The source of these data is PubChem BioAssay AID2051 (NMMLSC, 2009).

For orientation: EC50 means the concentration needed to bring the measured effect to its halfway point. The term Ki denotes a measure of affinity in units of concentration, obtained from inhibition or displacement.

Activity calls are given as the source filed them.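 The calls were made as follows: active = EC50 of 30 microM or lower and a span of response of at least a set limit; inactive = the rest.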

In the assay the target is Ras-related C3 botulinum toxin substrate 1 (Homo sapiens) (UniProt P63000). Briefly: activated mutant Rac1 GTP binding inhibitors, SAR follow-up, biochemical, oxadiazole analogs, multiplex bead flow cytometry (AID 2051). The conditions noted are these: Bead-based flow cytometry, Bodipy-FL-GTP binding to GST-Rac1; for Ki: measured here: Ki calculated from EC50.

For `COc1ccc(-c2noc(CCC(=O)N3CCN(c4ccccc4)CC3)n2)cc1`, the EC50 result is “inactive” and the Ki was 160 nM. As for `COc1ccc(-c2noc(CCC(=O)N3CCN(c4cccc(F)c4)CC3)n2)cc1`, the EC50 entry was “inactive”. In the case of `COc1ccc(-c2noc(CCC(=O)N3CCN(c4ccc(C)cc4)CC3)n2)cc1`, the EC50 entry is “inactive” and the Ki is 140 nM.

As to `COc1ccc(-c2noc(CCC(=O)N3CCN(c4ccccc4Br)CC3)n2)cc1`, the EC50 was 2240 nM and the inhibition constant Ki is 200 nM. `Cc1cccc(-c2noc(CCC(=O)N3CCN(c4cc(C)ccc4C)CC3)n2)c1`: the EC50 was 1920 nM and the inhibitory constant (Ki) was 170 nM. On the same counts, the results for `Cc1ccc(C)c(N2CCN(C(=O)CCc3nc(-c4cccc(C(F)(F)F)c4)no3)CC2)c1` are 3380 nM and 310 nM. On the same counts, the results for `COc1ccc(-c2noc(CCC(=O)N3CCN(c4ccccc4F)CC3)n2)cc1` are 2510 nM and 230 nM. Taken in the same sequence, the figures for `Cc1ccc(C)c(N2CCN(C(=O)CCc3nc(-c4cccc(F)c4)no3)CC2)c1` were 2550 nM and 230 nM. Take `COc1ccc(-c2noc(CCC(=O)N3CCN(c4ccccc4Cl)CC3)n2)cc1`: the EC50 was 4940 nM and the Ki is 450 nM. Turning to `Cc1ccc(-c2noc(CCC(=O)N3CCN(c4cc(C)ccc4C)CC3)n2)cc1`, the 50% effective concentration (EC50) was 3320 nM and the Ki is 300 nM. Taken in the same sequence, the figures for `COc1ccc(-c2coc(CCC(=O)N3CCN(c4cc(C)ccc4C)CC3)n2)cc1` were 2840 nM and 260 nM.

Turning to `COc1ccc(-c2noc(CCC(=O)N3CCN(c4ccccc4C)CC3)n2)cc1`, the EC50 is 1480 nM and the inhibitory constant (Ki) was 130 nM. For the compound `COc1ccc(-c2noc(CCC(=O)N3CCN(c4ccccc4C(F)(F)F)CC3)n2)cc1`, the concentration giving a half-maximal response (EC50) is 2010 nM and the Ki is 180 nM. On the same counts, the results for `COc1ccc(-c2noc(CCC(=O)N3CCN(c4ccc(F)cc4)CC3)n2)cc1` are “inactive” and 80 nM. On the same counts, the results for `Cc1ccc(C)c(N2CCN(C(=O)CCc3nc(-c4ccccc4F)no3)CC2)c1` are 2250 nM and 200 nM.

As for `Cc1ccc(C)c(N2CCN(C(=O)CCc3nc(-c4ccc(C(F)(F)F)cc4)no3)CC2)c1`, the EC50 is 1950 nM and the inhibition constant Ki was 180 nM. Taken in the same sequence, the figures for `Cc1ccc(C)c(N2CCN(C(=O)CCc3nc(-c4ccccc4Br)no3)CC2)c1` were 2150 nM and 200 nM. On the same counts, the results for `Cc1ccc(C)c(N2CCN(C(=O)CCc3nc(-c4cccc(Br)c4)no3)CC2)c1` are 2140 nM and 190 nM.

For `COc1ccc(-c2cc(CCC(=O)N3CCN(c4cc(C)ccc4C)CC3)[nH]n2)cc1`, the EC50 result was “inactive”.

Consider `COc1ccc(-c2ccc(CCC(=O)N3CCN(c4cc(C)ccc4C)CC3)s2)cc1`, for which the EC50 entry is “inactive”. Turning to `COc1ccc(-c2noc(CCC(=O)N3CCN(c4ccc(OC)cc4)CC3)n2)cc1`, the EC50 result is “inactive” and the Ki is 60 nM.

`COc1ccc(-c2ccc(CCC(=O)N3CCN(c4cc(C)ccc4C)CC3)[nH]2)cc1`: the EC50 entry was “inactive” and the Ki was 480 nM. Taken in the same sequence, the figures for `COc1ccc(-c2noc(CCC(=O)N3CCN(c4cccc(Cl)c4)CC3)n2)cc1` were 7340 nM and 670 nM. For `Cc1ccc(C)c(N2CCN(C(=O)CCc3nc(-c4ccc(N(C)C)cc4)no3)CC2)c1`, the EC50 is 4100 nM and the Ki is 370 nM.

For `COc1ccc(-c2noc(CCC(=O)N3CCN(c4cccc(C)c4)CC3)n2)cc1`, the EC50 entry was “inactive”. Take `Cc1ccc(C)c(N2CCN(C(=O)CCc3nc(-c4ccccc4C)no3)CC2)c1`: the concentration giving a half-maximal response (EC50) is 2010 nM and the Ki is 180 nM. As to `COc1ccc(-c2noc(CCC(=O)N3CCN(c4ccc(Cl)cc4)CC3)n2)cc1`, the EC50 entry is “inactive”. Turning to `COc1ccc(-c2noc(CCC(=O)N3CCN(c4cccc(C)c4C)CC3)n2)cc1`, the concentration giving a half-maximal response (EC50) was 1540 nM and the inhibitory constant (Ki) was 140 nM. As to `Cc1ccc(C)c(N2CCN(C(=O)CCc3nc(-c4ccccc4C(F)(F)F)no3)CC2)c1`, the concentration giving a half-maximal response (EC50) was 2700 nM and the Ki is 250 nM. For the compound `COc1ccc(-c2noc(CCC(=O)N3CCN(c4cccc(C(F)(F)F)c4)CC3)n2)cc1`, the EC50 entry is “inactive” and the Ki was 830 nM. Regarding `COc1ccc(-c2noc(CCC(=O)N3CCC(c4cc(C)ccc4C)CC3)n2)cc1`, the EC50 result is “inactive” and the Ki was 230 nM.

As to `COc1ccc(-c2noc(CC(=O)N3CCN(c4cc(C)ccc4C)CC3)n2)cc1`, the EC50 result is “inactive” and the Ki is 1320 nM.

Take `COc1ccc(-c2noc(CCCCC(=O)N3CCN(c4cc(C)ccc4C)CC3)n2)cc1`: the EC50 result is “inactive” and the Ki was 1060 nM. On the same counts, the results for `Cc1ccc(C)c(N2CCN(C(=O)CCc3nc(-c4ccc(Cl)cc4)no3)CC2)c1` are 2250 nM and 200 nM.

Consider `COc1ccc(-c2cc(CCC(=O)N3CCN(c4cc(C)ccc4C)CC3)on2)cc1`, for which the EC50 result was “inactive” and the inhibition constant Ki was 190 nM. In the case of `COc1cccc(-c2noc(CCC(=O)N3CCN(c4cc(C)ccc4C)CC3)n2)c1`, the EC50 was 5780 nM and the Ki is 530 nM. On the same counts, the results for `Cc1ccc(C)c(N2CCN(C(=O)CCc3nc(-c4ccccc4Cl)no3)CC2)c1` are 1370 nM and 120 nM. Consider `COc1ccccc1-c1noc(CCC(=O)N2CCN(c3cc(C)ccc3C)CC2)n1`, for which the EC50 entry is “inactive” and the Ki is 480 nM.

For the compound `COc1ccc(-c2noc(CCC(=O)N3CCN(c4ccccc4OC)CC3)n2)cc1`, the EC50 is 3800 nM and the Ki was 350 nM. As to `COc1ccc(-c2noc(CCCC(=O)N3CCN(c4cc(C)ccc4C)CC3)n2)cc1`, the EC50 is 8220 nM and the inhibitory constant (Ki) was 750 nM.

As to `Cc1ccc(C)c(N2CCN(C(=O)CCc3nc(-c4ccccc4)no3)CC2)c1`, the 50% effective concentration (EC50) is 2790 nM and the Ki is 250 nM. Taken in the same sequence, the figures for `COc1ccc(-c2noc(CCC(=O)N3CCN(c4cccc(Br)c4)CC3)n2)cc1` were 20600 nM and 1870 nM.

Take `COc1ccc(-c2noc(CCC(=O)N3CCN(c4ccc(C(F)(F)F)cc4)CC3)n2)cc1`: the EC50 result was “inactive”. On to `COc1ccc(-c2cccc(CCC(=O)N3CCN(c4cc(C)ccc4C)CC3)c2)cc1`, for which the EC50 result is “inactive” and the inhibition constant Ki is 910 nM.

For the compound `COc1ccc(-c2ccc(CCC(=O)N3CCN(c4cc(C)ccc4C)CC3)o2)cc1`, the EC50 entry was “inactive”. `Cc1ccc(C)c(N2CCN(C(=O)CCc3nc(-c4ccc(F)cc4)no3)CC2)c1`: the EC50 is 1370 nM and the Ki is 120 nM. On the same counts, the results for `Cc1ccc(C)c(N2CCN(C(=O)CCc3nc(-c4cccc(Cl)c4)no3)CC2)c1` are 5120 nM and 470 nM. On to `COc1ccc(-c2noc(CCC(=O)N3CCN(c4cccc(OC)c4)CC3)n2)cc1`, for which the EC50 entry was “inactive” and the inhibitory constant (Ki) is 890 nM.

With `COc1ccc(-c2noc(CCC(=O)N3CCN(c4cc(C)ccc4C)CC3)n2)cc1`, the EC50 is 5900 nM and the Ki is 540 nM. For `Cc1ccc(C)c(N2CCN(C(=O)CCc3nc(-c4ccc(Br)cc4)no3)CC2)c1`, the EC50 was 3020 nM and the Ki was 270 nM. Taken in the same sequence, the figures for `COc1ccc(-c2noc(CCC(=O)N3CCN(c4ccc(Br)cc4)CC3)n2)cc1` were “inactive” and 300 nM.
